Data published in ChEMBL document CHEMBL6182870, “Synthesis and biological activity of 1H-pyrrolo[3,2-g]isoquinolines as Haspin kinase inhibitors” (Bioorg Med Chem, 2025).
pIC50: −log10 of the molar value.

Assays:
[1] = target: T1, Serine/threonine-protein kinase haspin (Homo sapiens) (UniProt Q8TF76); experiment: Inhibition of recombinant human haspin kinase domain (470 to 798 residues) extracted from bacteria using histone H3 (1 to 21) peptide as substrate assessed as residual activity at 10 uM incubated for 30 mins in presence of ATP by ADP-Glo kinase assay relative to control
T1 sequence (whole entry): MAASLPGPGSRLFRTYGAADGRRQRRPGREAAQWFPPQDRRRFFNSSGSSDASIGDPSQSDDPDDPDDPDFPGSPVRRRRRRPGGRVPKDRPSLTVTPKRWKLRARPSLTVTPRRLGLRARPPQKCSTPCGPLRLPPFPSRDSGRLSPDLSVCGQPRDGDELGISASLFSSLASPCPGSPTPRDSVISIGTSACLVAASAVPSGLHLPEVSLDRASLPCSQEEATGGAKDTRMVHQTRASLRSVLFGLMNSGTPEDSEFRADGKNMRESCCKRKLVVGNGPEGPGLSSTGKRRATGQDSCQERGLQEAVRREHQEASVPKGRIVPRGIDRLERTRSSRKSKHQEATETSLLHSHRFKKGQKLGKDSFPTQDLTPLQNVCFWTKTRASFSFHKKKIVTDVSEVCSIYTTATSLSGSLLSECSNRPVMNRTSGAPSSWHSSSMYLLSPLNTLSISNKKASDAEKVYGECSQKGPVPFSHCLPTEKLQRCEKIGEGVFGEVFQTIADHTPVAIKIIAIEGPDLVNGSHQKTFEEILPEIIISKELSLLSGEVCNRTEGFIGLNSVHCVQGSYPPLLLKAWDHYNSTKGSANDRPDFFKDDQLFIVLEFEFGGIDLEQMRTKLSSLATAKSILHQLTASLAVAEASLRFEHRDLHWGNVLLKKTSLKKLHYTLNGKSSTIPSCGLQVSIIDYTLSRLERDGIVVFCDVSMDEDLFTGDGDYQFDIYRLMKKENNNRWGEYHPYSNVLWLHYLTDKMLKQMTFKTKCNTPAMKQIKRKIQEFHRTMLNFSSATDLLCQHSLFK

[2] = target: T1, Serine/threonine-protein kinase haspin (Homo sapiens); experiment: Inhibition of recombinant human haspin kinase domain (470 to 798 residues) extracted from bacteria using histone H3 (1 to 21) peptide as substrate assessed as residual activity at 1 uM incubated for 30 mins in presence of ATP by ADP-Glo kinase assay relative to control
[3] = target: Dual specificity tyrosine-phosphorylation-regulated kinase 1A (Rattus norvegicus) (UniProt Q63470); experiment: Inhibition of recombinant rat DYRK1A kinase domain (1 to 499 residues) extracted from bacteria using KKISGRLSPIMTEQ as substrate assessed as enzyme residual activity at 10 uM incubated for 30 mins in presence of ATP by ADP-Glo kinase assay relative to control
[4] = target: Dual specificity protein kinase CLK1 (Mus musculus) (UniProt P22518); experiment: Inhibition of recombinant mouse CLK1 extracted from bacteria using GRSRSRSRSRSR as substrate assessed as enzyme residual activity at 10 uM incubated for 30 mins in presence of ATP by ADP-Glo kinase assay relative to control
[5] = target: Dual specificity protein kinase CLK1 (Mus musculus) (UniProt P22518); experiment: Inhibition of recombinant mouse CLK1 extracted from bacteria using GRSRSRSRSRSR as substrate assessed as enzyme residual activity at 1 uM incubated for 30 mins in presence of ATP by ADP-Glo kinase assay relative to control
[6] = target: Dual specificity tyrosine-phosphorylation-regulated kinase 1A (Rattus norvegicus) (UniProt Q63470); experiment: Inhibition of recombinant rat DYRK1A kinase domain (1 to 499 residues) extracted from bacteria using KKISGRLSPIMTEQ as substrate assessed as enzyme residual activity at 1 uM incubated for 30 mins in presence of ATP by ADP-Glo kinase assay relative to control
[7] = Inhibition of recombinant human CDK9/Cyclin T extracted from baculovirus infected Sf9 cells using YSPTSPSYSPTSPSYSPTSPSKKKK as substrate assessed as enzyme residual activity at 10 uM incubated for 30 mins in presence of ATP by ADP-Glo kinase assay relative to control
[8] = Inhibition of recombinant human CDK9/Cyclin T extracted from baculovirus infected Sf9 cells using YSPTSPSYSPTSPSYSPTSPSKKKK as substrate assessed as enzyme residual activity at 1 uM incubated for 30 mins in presence of ATP by ADP-Glo kinase assay relative to control
[9] = target: Glycogen synthase kinase-3 beta (Homo sapiens) (UniProt P49841); experiment: Inhibition of recombinant human GSK3beta extracted from baculovirus infected Sf9 cells using GS-1 (YRRAAVPPSPSLSRHSSPHQSpEDEEE) peptide as substrate assessed as enzyme residual activity at 10 uM incubated for 30 mins in presence of ATP by ADP-Glo kinase assay relative to control
[10] = target: Glycogen synthase kinase-3 beta (Homo sapiens) (UniProt P49841); experiment: Inhibition of recombinant human GSK3beta extracted from baculovirus infected Sf9 cells using GS-1 (YRRAAVPPSPSLSRHSSPHQSpEDEEE) peptide as substrate assessed as enzyme residual activity at 1 uM incubated for 30 mins in presence of ATP by ADP-Glo kinase assay relative to control
[11] = target: Casein kinase I isoform epsilon (Homo sapiens) (UniProt P49674); experiment: Inhibition of recombinant human CK1epsilon extracted from baculovirus infected Sf9 cells using RRKHAAIGSpAYSITA peptide as substrate assessed as enzyme residual activity at 10 uM incubated for 30 mins in presence of ATP by ADP-Glo kinase assay relative to control
[12] = target: Casein kinase I isoform epsilon (Homo sapiens) (UniProt P49674); experiment: Inhibition of recombinant human CK1epsilon extracted from baculovirus infected Sf9 cells using RRKHAAIGSpAYSITA peptide as substrate assessed as enzyme residual activity at 1 uM incubated for 30 mins in presence of ATP by ADP-Glo kinase assay relative to control
[13] = target: T2, Cyclin-dependent kinase 5/CDK5 activator 1 (Homo sapiens) (UniProt Q00535+Q15078); experiment: Inhibition of recombinant human CDK5/p25 extracted from bacteria using histone H1 as substrate assessed as enzyme residual activity at 10 uM incubated for 30 mins in presence of ATP by ADP-Glo kinase assay relative to control; assay type: protein-complex assay
[14] = target: T2, Cyclin-dependent kinase 5/CDK5 activator 1 (Homo sapiens); experiment: Inhibition of recombinant human CDK5/p25 extracted from bacteria using histone H1 as substrate assessed as enzyme residual activity at 1 uM incubated for 30 mins in presence of ATP by ADP-Glo kinase assay relative to control; assay type: protein-complex assay
[15] = target: T3, Serine/threonine-protein kinase pim-1 (Homo sapiens, UniProt P11309); experiment: Inhibition of recombinant human PIM-1 extracted from bacteria using histone H1 as substrate assessed as enzyme residual activity at 10 uM incubated for 30 mins in presence of ATP by ADP-Glo kinase assay relative to control
[16] = target: T3, Serine/threonine-protein kinase pim-1; experiment: Inhibition of recombinant human PIM-1 extracted from bacteria using histone H1 as substrate assessed as enzyme residual activity at 1 uM incubated for 30 mins in presence of ATP by ADP-Glo kinase assay relative to control
[17] = target: T4, Serine/threonine-protein kinase haspin (Homo sapiens, UniProt Q8TF76); experiment: Inhibition of recombinant human haspin kinase domain (470 to 798 residues) extracted from bacteria using histone H3 (1 to 21) peptide as substrate incubated for 30 mins in presence of ATP by ADP-Glo kinase assay
T4 sequence (Q8TF76 whole entry): T1 sequence (whole entry)

Chain of Dual specificity protein kinase CLK1 (Mus musculus) (P22518 whole entry, looked up, the tested form may be a part): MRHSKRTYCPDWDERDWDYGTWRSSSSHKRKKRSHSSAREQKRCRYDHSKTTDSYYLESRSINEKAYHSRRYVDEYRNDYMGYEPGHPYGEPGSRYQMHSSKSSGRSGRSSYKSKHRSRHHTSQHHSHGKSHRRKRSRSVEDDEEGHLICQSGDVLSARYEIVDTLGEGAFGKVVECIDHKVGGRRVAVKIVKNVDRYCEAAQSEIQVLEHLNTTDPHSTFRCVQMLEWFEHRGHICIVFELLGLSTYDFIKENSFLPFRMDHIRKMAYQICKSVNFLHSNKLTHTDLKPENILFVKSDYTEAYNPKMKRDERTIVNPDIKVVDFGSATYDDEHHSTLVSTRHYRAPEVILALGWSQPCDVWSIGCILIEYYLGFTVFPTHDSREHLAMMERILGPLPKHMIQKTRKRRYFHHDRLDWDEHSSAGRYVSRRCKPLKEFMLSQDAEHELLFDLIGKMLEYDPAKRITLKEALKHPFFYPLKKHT
Chain of Casein kinase I isoform epsilon (Homo sapiens) (P49674 whole entry, looked up, canonical isoform): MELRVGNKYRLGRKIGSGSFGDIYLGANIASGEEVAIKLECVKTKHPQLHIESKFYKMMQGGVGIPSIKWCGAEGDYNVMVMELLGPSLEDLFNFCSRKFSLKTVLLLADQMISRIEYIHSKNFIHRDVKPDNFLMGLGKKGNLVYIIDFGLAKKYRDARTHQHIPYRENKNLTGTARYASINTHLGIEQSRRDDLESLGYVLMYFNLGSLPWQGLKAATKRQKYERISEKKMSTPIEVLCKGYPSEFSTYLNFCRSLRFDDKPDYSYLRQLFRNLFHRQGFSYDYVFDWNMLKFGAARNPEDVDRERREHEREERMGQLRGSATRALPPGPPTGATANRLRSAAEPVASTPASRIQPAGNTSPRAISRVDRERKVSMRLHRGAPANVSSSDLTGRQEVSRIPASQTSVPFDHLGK
Chain of Glycogen synthase kinase-3 beta (Homo sapiens) (P49841 whole entry, looked up, canonical isoform): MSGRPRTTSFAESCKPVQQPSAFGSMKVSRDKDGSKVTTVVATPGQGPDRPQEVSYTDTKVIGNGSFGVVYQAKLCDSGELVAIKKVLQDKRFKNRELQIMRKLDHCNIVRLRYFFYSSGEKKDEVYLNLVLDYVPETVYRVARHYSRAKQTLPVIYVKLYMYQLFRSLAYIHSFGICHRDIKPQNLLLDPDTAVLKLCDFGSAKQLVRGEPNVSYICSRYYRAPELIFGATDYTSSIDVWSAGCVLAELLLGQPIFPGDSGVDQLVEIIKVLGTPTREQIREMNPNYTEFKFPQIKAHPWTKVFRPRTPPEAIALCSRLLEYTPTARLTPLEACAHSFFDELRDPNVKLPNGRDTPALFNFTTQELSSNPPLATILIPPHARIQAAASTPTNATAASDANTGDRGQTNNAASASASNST
T3 sequence (P11309 whole entry, looked up): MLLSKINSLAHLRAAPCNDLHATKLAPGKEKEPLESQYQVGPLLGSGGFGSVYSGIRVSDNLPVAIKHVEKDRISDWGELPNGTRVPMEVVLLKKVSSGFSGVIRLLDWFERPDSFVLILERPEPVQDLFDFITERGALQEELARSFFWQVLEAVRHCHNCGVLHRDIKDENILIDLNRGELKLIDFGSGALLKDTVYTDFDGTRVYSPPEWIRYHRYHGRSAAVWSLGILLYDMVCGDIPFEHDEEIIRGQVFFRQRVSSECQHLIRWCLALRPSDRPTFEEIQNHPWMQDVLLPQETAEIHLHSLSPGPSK
T2 sequence (Q00535 whole entry): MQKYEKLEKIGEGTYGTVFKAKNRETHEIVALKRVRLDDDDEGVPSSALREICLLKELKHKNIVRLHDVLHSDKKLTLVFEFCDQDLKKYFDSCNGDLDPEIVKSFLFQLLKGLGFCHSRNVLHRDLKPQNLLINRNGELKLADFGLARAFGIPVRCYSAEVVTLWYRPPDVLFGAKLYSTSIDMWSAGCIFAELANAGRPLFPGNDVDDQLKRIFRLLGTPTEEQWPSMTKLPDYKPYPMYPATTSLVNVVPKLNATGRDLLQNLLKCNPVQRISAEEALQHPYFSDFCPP
T2 sequence (Q15078 99-307 partner limits assumed): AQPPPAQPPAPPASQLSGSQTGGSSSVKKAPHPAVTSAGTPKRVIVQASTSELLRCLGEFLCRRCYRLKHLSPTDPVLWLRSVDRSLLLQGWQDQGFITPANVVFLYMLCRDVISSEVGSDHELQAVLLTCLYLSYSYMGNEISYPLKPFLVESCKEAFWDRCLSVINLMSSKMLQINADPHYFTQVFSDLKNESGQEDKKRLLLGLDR

Compound	Activity [1] [%]	Activity [2] [%]	Activity [3] [%]	Activity [4] [%]	Activity [5] [%]	Activity [6] [%]	Activity [7] [%]	Activity [8] [%]	Activity [9] [%]	Activity [10] [%]	Activity [11] [%]	Activity [12] [%]	Activity [13] [%]	Activity [14] [%]	Activity [15] [%]	Activity [16] [%]	pIC50 [17]
O=C1CCC(N2C(=O)c3cccc(NCCOCCOCCOCCNC(=O)c4c[nH]c5cc6cnccc6cc45)c3C2=O)C(=O)N1 (stereo not given)	60	74	84	97	97	90	86	100	85	82	99	100	100	100	75	67	–
O=C1CCC(N2C(=O)c3cccc(NCCOCCOCCOCCn4cc(Br)c5cc6ccncc6cc54)c3C2=O)C(=O)N1 (stereo not given)	86	98	–	–	–	–	–	–	–	–	–	–	–	–	–	–	–
O=C1CCC(N2C(=O)c3cccc(NCCOCCOCCOCCn4cc(Cl)c5cc6ccncc6cc54)c3C2=O)C(=O)N1 (stereo not given)	90	78	–	–	–	–	–	–	–	–	–	–	–	–	–	–	–
c1cc2c(ccc3cc[nH]c32)cn1	9	39	31	43	80	50	45	59	76	82	94	95	63	77	38	64	6.59
O=C1CCC(N2C(=O)c3cccc(NCCOCCOCCOCCn4cc(-c5ccncc5)c5cc6ccncc6cc54)c3C2=O)C(=O)N1 (stereo not given)	71	67	64	89	100	90	96	97	81	84	84	99	100	100	64	74	–
c1cc2cc3c(cc2cn1)NCC3	28	66	66	80	98	68	62	75	80	78	96	92	88	89	70	65	–
O=C1CCC(N2C(=O)c3cccc(NCCOCCOCCOCCn4ccc5cc6ccncc6cc54)c3C2=O)C(=O)N1 (stereo not given)	83	95	87	94	100	100	88	91	81	93	97	100	100	100	86	95	–
O=C1CCC(N2C(=O)c3cccc(NCCOCCOCCOCCn4cc(-c5cccnc5)c5cc6ccncc6cc54)c3C2=O)C(=O)N1 (stereo not given)	71	70	74	79	90	65	81	91	74	86	91	100	100	100	66	61	–
O=C1CCC(N2C(=O)c3cccc(NCCOCCOCCOCCn4cc(I)c5cc6ccncc6cc54)c3C2=O)C(=O)N1 (stereo not given)	100	80	–	–	–	–	–	–	–	–	–	–	–	–	–	–	–
Cn1cc(-c2ccccn2)c2cc3ccncc3cc21	7	25	23	36	73	63	49	77	53	67	89	100	100	100	38	74	6.76
